ChEMBL document CHEMBL4834420, “Projected Dose Optimization of Amino- and Hydroxypyrrolidine Purine PI3Kδ Immunomodulators” (J Med Chem, 2021)

Columns and labels:
[1] = target: T1, Phosphatidylinositol 4,5-bisphosphate 3-kinase catalytic subunit delta isoform (Homo sapiens, UniProt O00329); assay: Inhibition of PI3Kdelta in human Ramos cells assessed as reduction in anti-IgM-antibody-induced phosphorylation of AKT at Ser473 residue preincubated for 20 mins followed by anti-IgM antibody stimulation and measured after 30 mins by alphascreen assay; format: cell-based
T1 sequence (O00329 whole entry): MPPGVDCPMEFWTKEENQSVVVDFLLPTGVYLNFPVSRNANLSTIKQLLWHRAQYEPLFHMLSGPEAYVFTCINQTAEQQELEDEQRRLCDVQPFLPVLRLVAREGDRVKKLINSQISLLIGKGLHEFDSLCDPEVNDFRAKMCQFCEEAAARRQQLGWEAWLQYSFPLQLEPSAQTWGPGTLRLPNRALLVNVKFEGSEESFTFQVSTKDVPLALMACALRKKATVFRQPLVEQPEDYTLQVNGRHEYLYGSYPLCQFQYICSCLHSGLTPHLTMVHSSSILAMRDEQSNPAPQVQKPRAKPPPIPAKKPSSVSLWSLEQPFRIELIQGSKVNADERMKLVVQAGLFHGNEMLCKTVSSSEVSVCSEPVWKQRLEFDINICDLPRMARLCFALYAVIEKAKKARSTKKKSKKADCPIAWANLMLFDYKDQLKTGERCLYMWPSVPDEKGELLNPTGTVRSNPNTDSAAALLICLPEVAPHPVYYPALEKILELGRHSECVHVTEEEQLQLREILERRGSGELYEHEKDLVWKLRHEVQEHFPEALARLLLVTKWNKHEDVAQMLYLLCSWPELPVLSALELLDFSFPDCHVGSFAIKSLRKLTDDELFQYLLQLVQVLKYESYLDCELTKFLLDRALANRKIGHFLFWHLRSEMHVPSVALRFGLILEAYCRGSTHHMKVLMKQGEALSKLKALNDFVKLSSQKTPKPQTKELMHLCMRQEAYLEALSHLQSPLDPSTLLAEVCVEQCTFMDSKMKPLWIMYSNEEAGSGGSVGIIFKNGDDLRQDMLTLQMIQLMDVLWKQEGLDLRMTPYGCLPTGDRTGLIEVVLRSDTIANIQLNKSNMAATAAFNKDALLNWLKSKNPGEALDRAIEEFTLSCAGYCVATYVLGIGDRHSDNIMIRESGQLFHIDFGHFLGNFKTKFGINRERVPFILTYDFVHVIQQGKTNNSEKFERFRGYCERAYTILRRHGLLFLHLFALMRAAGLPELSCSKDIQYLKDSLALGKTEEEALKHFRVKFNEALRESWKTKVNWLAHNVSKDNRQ

[2] = Inhibition of adenosine transporter in human HeLa cells assessed as reduction in [3H]adenosine uptake preincubated for 30 mins followed by [3H]adenosine addition and measured after 60 mins; format: cell-based
[3] = Half-life in Wistar Han rat; format: ADME; details: in vivo
[4] = Intrinsic clearance in Wistar Han rat at 0.5 mg/kg, iv or 1 mg/kg, po; format: ADME, organism-based; details: in vivo
[5] = Lipophilicity, log D of the compound by HPLC analysis; format: physicochemical
[6] = Oral bioavailability in Wistar Han rat; format: ADME, organism-based; details: in vivo
[7] = Intrinsic clearance in Beagle dog at 0.25 mg/kg, iv or 0.5 mg/kg, po; format: ADME, organism-based, Canis lupus familiaris; details: in vivo
[8] = Unbound volume of distribution in Beagle dog; format: ADME, Canis lupus familiaris; details: in vivo
[9] = Unbound volume of distribution in Wistar Han rat; format: ADME; details: in vivo
[10] = Volume of distribution in Wistar Han rat; format: ADME; details: in vivo
[11] = Half-life in Beagle dog; format: ADME, Canis lupus familiaris; details: in vivo
[12] = Oral bioavailability in Beagle dog; format: ADME, organism-based, Canis lupus familiaris; details: in vivo
[13] = target: PI3-kinase p110-delta/p85-alpha (Homo sapiens, UniProt O00329); assay: Inhibition of N-terminal His6-tagged recombinant full length human p110delta/untagged recombinant full length human p85alpha expressed in baculovirus infected Sf21 insect cells using PIP2 as substrate preincubated for 15 mins followed by substrate addition and measured after 1 hr by HTRF assay
[14] = Plasma clearance in Beagle dog at 0.25 mg/kg, iv or 0.5 mg/kg, po; format: ADME, organism-based, Canis lupus familiaris
[15] = target: T1, Phosphatidylinositol 4,5-bisphosphate 3-kinase catalytic subunit delta isoform; assay: Inhibition of PI3Kdelta in human whole blood assessed as reduction in anti-CD79b antibody-induced CD69 expression preincubated for 60 mins followed by anti-CD79b antibody stimulation and measured after 3 hrs by FACS analysis; format: tissue-based
[16] = Plasma clearance in Wistar Han rat at 0.5 mg/kg, iv or 1 mg/kg, po; format: ADME, organism-based
[17] = Volume of distribution in Beagle dog; format: ADME, Canis lupus familiaris; details: in vivo
[18] = Apparent permeability in pig LLC-PK1 cells; format: ADME, cell-based, Sus scrofa

PI3-kinase p110-delta/p85-alpha, sequence (P27986 whole entry, one chain of several): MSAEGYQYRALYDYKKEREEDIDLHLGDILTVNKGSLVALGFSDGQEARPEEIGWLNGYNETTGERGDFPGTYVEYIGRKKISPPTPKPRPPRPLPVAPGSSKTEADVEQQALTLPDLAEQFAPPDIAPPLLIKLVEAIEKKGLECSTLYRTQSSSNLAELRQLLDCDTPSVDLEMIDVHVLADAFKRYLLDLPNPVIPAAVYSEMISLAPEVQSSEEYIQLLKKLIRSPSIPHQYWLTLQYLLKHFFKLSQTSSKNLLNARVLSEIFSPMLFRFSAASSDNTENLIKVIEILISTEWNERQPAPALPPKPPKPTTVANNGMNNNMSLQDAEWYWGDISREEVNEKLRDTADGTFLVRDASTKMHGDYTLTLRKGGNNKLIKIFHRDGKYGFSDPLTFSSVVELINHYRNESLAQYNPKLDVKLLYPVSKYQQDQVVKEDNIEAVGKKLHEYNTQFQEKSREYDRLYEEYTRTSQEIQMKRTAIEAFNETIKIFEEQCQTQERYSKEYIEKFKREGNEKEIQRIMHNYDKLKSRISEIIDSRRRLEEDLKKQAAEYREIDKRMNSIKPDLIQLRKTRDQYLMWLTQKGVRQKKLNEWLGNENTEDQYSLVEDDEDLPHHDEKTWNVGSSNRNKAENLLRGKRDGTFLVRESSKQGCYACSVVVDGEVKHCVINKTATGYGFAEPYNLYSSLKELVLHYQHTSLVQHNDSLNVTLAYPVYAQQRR

Row | Compound | IC50 [1] | IC50 [2] | half-life [3] | CL [4] | logD [5] | bioavailability [6] | CL [7] | Vdu [8] | Vdu [9] | Vd [10] | half-life [11] | bioavailability [12] | IC50 [13] | clearance [14] | IC50 [15] | clearance [16] | Vd [17] | Papp [18]
1 | CCC(=O)N1CC[C@H](Nc2ncnc3c2nc(-c2cnc(OC)c(C)c2)n3C)C1 | 6 nM | 300 nM | – | – | – | – | – | – | – | – | – | – | – | – | – | – | – | –
2 | CCn1c(-c2cnc(C)nc2)nc2c(O[C@H]3CCN(C(=O)C4CC4)C3)ncnc21 | 80 nM | 5300 nM | 1.8 h | 44 mL/min/kg | 1 | 64% | 7 mL/min/kg | 0.7 L/kg | 2.8 L/kg | 0.7 L/kg | 1.3 h | 100% | 5.9 nM | 4.9 mL/min/kg | 270 nM | 9.7 mL/min/kg | 0.6 L/kg | 28 ×10⁻⁶ cm/s
3 | CCn1c(-c2cnc(C)nc2)nc2c(N[C@H]3CCN(C(=O)C4CCC4)C3)ncnc21 | 4 nM | 1200 nM | 0.6 h | 320 mL/min/kg | 1.2 | 74% | 30 mL/min/kg | 2.3 L/kg | 9.2 L/kg | 0.5 L/kg | 1.3 h | 84% | 0.4 nM | 11 mL/min/kg | 14 nM | 13 mL/min/kg | 1.3 L/kg | 32 ×10⁻⁶ cm/s
4 | CCC(=O)N1CC[C@H](Nc2ncnc3c2nc(-c2cnn(CC)c2C)n3CC)C1 | 2 nM | 2300 nM | – | – | – | – | – | – | – | – | – | – | 0.2 nM | – | – | – | – | –
5 | CCCn1c(-c2cnn(CC)c2C)nc2c(N[C@H]3CCN(C(=O)CC)C3)ncnc21 | 198 nM | 3700 nM | – | – | – | – | – | – | – | – | – | – | 21 nM | – | – | – | – | –
6 | CCn1c(-c2cnc(C)nc2)nc2c(N[C@H]3CCN(C(=O)C4CCOCC4)C3)ncnc21 | 33 nM | 8900 nM | 1.4 h | 220 mL/min/kg | 0.7 | 18% | – | – | 4.3 L/kg | 0.7 L/kg | – | – | 2.1 nM | – | – | 24 mL/min/kg | – | –
7 | CCC(=O)N1CC[C@H](Nc2ncnc3c2nc(-c2cnc(C(C)(C)C)s2)n3C)C1 | 4 nM | 1600 nM | – | – | – | – | – | – | – | – | – | – | 0.7 nM | – | – | – | – | –
8 | CCCn1c(-c2cnc(C)nc2)nc2c(N[C@H]3CCN(C(=O)CC)C3)ncnc21 | 455 nM | – | – | – | – | – | – | – | – | – | – | – | 135 nM | – | – | – | – | –
9 | CCn1c(-c2ccc(C(F)(F)F)nc2)nc2c(O[C@H]3CCN(C(=O)[C@H]4C[C@@H](OC)C4)C3)ncnc21 | 67 nM | 4100 nM | 3.3 h | 130 mL/min/kg | 2.2 | 39% | 18 mL/min/kg | 2.5 L/kg | 13 L/kg | 0.4 L/kg | 2.6 h | 100% | 1.6 nM | 6.2 mL/min/kg | 73 nM | 3.6 mL/min/kg | 1.1 L/kg | 35 ×10⁻⁶ cm/s
10 | CCC(=O)N1CC[C@H](Nc2ncnc3c2nc(-c2cnc(OC)c(F)c2)n3C)C1 | 20 nM | 1300 nM | – | – | – | – | – | – | – | – | – | – | 2.6 nM | – | – | – | – | –
11 | CCC(=O)N1CC[C@H](Nc2ncnc3c2nc(-c2cnc(C)nc2)n3C)C1 | 71 nM | 2000 nM | – | – | – | – | – | – | – | – | – | – | 4.2 nM | – | – | – | – | –
12 | CCn1c(-c2ccc(C(F)(F)F)nc2)nc2c(O[C@H]3CCN(C(=O)N4CC(OC)C4)C3)ncnc21 | 43 nM | 2200 nM | 2 h | 29 mL/min/kg | 2.1 | 52% | 46 mL/min/kg | 1.7 L/kg | 4.2 L/kg | 0.2 L/kg | 0.7 h | 100% | 1.3 nM | 12 mL/min/kg | 68 nM | 1.7 mL/min/kg | 0.7 L/kg | 33 ×10⁻⁶ cm/s
13 | CCn1c(-c2cnc(C)nc2)nc2c(O[C@H]3CCN(C(=O)c4cocn4)C3)ncnc21 | 94 nM | > 10000 nM | 1.7 h | 25 mL/min/kg | 0.7 | 50% | 16 mL/min/kg | 1.9 L/kg | 3.2 L/kg | 0.5 L/kg | 1.8 h | 100% | 6.4 nM | 9.3 mL/min/kg | 600 nM | 3.7 mL/min/kg | 1.7 L/kg | –
14 | CCC(=O)N1CC[C@H](Nc2ncnc3[nH]c(-c4cnn(CC)c4C)nc23)C1 | 875 nM | 5400 nM | – | – | – | – | – | – | – | – | – | – | 7.6 nM | – | – | – | – | –
15 | CCC(=O)N1CC[C@H](Nc2ncnc3c2nc(-c2ccc(OC)nc2)n3C)C1 | 67 nM | 1900 nM | – | – | – | – | – | – | – | – | – | – | – | – | – | – | – | –
16 | CCC(=O)N1CC[C@H](Nc2ncnc3c2nc(-c2cnn(CC)c2C)n3C)C1 | – | 7300 nM | – | – | – | – | – | – | – | – | – | – | – | – | – | – | – | –
17 | CCn1c(-c2cnc(C)nc2)nc2c(N[C@H]3CCN(C(=O)N4CC(OC)C4)C3)ncnc21 | 67 nM | 4700 nM | 4 h | 93 mL/min/kg | 0.7 | 16% | 19 mL/min/kg | 1.9 L/kg | 4.8 L/kg | 0.7 L/kg | 1.7 h | 69% | 0.7 nM | 9 mL/min/kg | 9 nM | 11 mL/min/kg | 1.4 L/kg | 10 ×10⁻⁶ cm/s
18 | CCn1c(-c2cnc(C)nc2)nc2c(N[C@H]3CCN(C(=O)[C@H]4C[C@@H](OC)C4)C3)ncnc21 | 34 nM | 6100 nM | 2.3 h | 81 mL/min/kg | 0.9 | 52% | 13 mL/min/kg | 2 L/kg | 4.1 L/kg | 1.5 L/kg | 4.3 h | 85% | 0.8 nM | 7.1 mL/min/kg | 26 nM | 6.9 mL/min/kg | 1.5 L/kg | 10 ×10⁻⁶ cm/s
19 | CCC(=O)N1CC[C@H](Nc2ncnc3c2nc(-c2ccc(C(F)(F)F)nc2)n3C)C1 | 66 nM | 700 nM | – | – | – | – | – | – | – | – | – | – | 9.9 nM | – | – | – | – | –
20 | CCn1c(-c2cnc(C)nc2)nc2c(O[C@H]3CCN(C(=O)[C@H]4C[C@@H](OC)C4)C3)ncnc21 | 110 nM | > 10000 nM | 1.8 h | 19 mL/min/kg | 1 | 37% | 3.3 mL/min/kg | 0.9 L/kg | 2.5 L/kg | 0.5 L/kg | 3.6 h | 80% | 2.8 nM | 2.1 mL/min/kg | 75 nM | 3.8 mL/min/kg | 0.6 L/kg | 18 ×10⁻⁶ cm/s
21 | CCC(=O)N1CC[C@H](Nc2ncnc3c2nc(-c2cnn(CC)c2C)n3CC2CC2)C1 | 1350 nM | – | – | – | – | – | – | – | – | – | – | – | – | – | – | – | – | –
22 | CCC(=O)N1CC[C@H](Nc2ncnc3c2nc(-c2cnn(CC)c2C)n3CC(F)(F)F)C1 | 330 nM | 9300 nM | – | – | – | – | – | – | – | – | – | – | 5.9 nM | – | – | – | – | –
23 | CCC(=O)N1CC[C@H](Nc2ncnc3c2nc(-c2ccn(CC)c2C)n3C)C1 | 125 nM | – | – | – | – | – | – | – | – | – | – | – | 26 nM | – | – | – | – | –
24 | CCC(=O)N1CC[C@H](Nc2ncnc3c2nc(-c2cnn(CC)c2C)n3CC(F)F)C1 | 14 nM | 3100 nM | – | – | – | – | – | – | – | – | – | – | 1.3 nM | – | – | – | – | –
25 | CCC(=O)N1CC[C@H](Nc2ncnc3c2nc(-c2ccc(C)nc2)n3C)C1 | 160 nM | 3800 nM | – | – | – | – | – | – | – | – | – | – | 5 nM | – | – | – | – | –
26 | CCC(=O)N1CC[C@H](Nc2ncnc3c2nc(-c2cnn(CC)c2C)n3C2CC2)C1 | 720 nM | – | – | – | – | – | – | – | – | – | – | – | 39 nM | – | – | – | – | –
